Results published in patent US20120165310A1, “ETHER DERIVATIVES OF BICYCLIC HETEROARYLS” (NOVARTIS AG, priority 2009, published 2012).

Tests used:
[1] = In vitro metabolic identification study with human liver microsomes; format: in vitro ADME; conditions: 1 hour incubation, parent 5 μM
Description: (§1) In vitro metabolic identification studies with, Example 2 and Example 3 with human and rat liver microsomes are summarized in the table below in which the compounds were incubated for 1 hour with rat or human liver microsome preparations.
(§2) The metabolism of unlabelled compound was examined following in vitro incubations with liver microsomes from rat and human. The samples were analyzed by capillary-HPLC/MS^(n) and screened for potential metabolites of the compound.

IGF-1R = target: T1, IGF-1R (Homo sapiens, UniProt P08069); experiment: Cellular IGF-1R assay: capture ELISA (MSD) of receptor phosphorylation in Hek293 cells; format: cell-based; conditions: Hek293-IGF1R cells, 1 h pre-incubation, 10 min IGF stimulation, pIGF1R capture ELISA
T1 construct: expressed in transfected cells; host or cells: Hek293 (Hek293-IGF1R)
Procedure, shortened: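 IC50 from 4-parameter fit of IGF1R phosphorylation, normalised to IGF-stimulated and unstimulated controls, measured by MSD capture ELISA on lysates. Hek293-IGF1R cells in starvation medium got compound 1 h (top 10 μM, 3-fold steps, 0.1% DMSO) before a 10 min pulse of 1.0 ng/μL IGF.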

[2] = In vitro metabolic identification study with rat liver microsomes; format: in vitro ADME; conditions: for formation of the phenolic metabolite X / metabolic stability relative to ex.102 of WO02/092559: rat and human liver microsomes; for Relative peak area after incubation, Parent / Relative peak area after incubation, Phenol metabolite X: rat liver microsomes, 1 hour incubation, parent 5 μM
Description: as §1, §2

InsR = InsR (Homo sapiens, UniProt P06213); experiment: Kinase activity test, parent compound vs phenol metabolite X; format: biochemical
RET = RET (Homo sapiens, UniProt P07949); experiment: as above; format: biochemical
Excerpt: (§3) In this tests, the parent compound, ex.102 of […] is compared with the corresponding phenol metabolite.

C-Abl = C-Abl (Homo sapiens, UniProt P00519); experiment: as above; format: biochemical
Excerpt: as §3

c-src = c-src (Homo sapiens, UniProt P12931); experiment: as above; format: biochemical
Excerpt: as §3

EphB4 = target: T2, EphB4 (Homo sapiens, UniProt P54760); experiment: as above; format: biochemical
T2 sequence (P54760 16-987): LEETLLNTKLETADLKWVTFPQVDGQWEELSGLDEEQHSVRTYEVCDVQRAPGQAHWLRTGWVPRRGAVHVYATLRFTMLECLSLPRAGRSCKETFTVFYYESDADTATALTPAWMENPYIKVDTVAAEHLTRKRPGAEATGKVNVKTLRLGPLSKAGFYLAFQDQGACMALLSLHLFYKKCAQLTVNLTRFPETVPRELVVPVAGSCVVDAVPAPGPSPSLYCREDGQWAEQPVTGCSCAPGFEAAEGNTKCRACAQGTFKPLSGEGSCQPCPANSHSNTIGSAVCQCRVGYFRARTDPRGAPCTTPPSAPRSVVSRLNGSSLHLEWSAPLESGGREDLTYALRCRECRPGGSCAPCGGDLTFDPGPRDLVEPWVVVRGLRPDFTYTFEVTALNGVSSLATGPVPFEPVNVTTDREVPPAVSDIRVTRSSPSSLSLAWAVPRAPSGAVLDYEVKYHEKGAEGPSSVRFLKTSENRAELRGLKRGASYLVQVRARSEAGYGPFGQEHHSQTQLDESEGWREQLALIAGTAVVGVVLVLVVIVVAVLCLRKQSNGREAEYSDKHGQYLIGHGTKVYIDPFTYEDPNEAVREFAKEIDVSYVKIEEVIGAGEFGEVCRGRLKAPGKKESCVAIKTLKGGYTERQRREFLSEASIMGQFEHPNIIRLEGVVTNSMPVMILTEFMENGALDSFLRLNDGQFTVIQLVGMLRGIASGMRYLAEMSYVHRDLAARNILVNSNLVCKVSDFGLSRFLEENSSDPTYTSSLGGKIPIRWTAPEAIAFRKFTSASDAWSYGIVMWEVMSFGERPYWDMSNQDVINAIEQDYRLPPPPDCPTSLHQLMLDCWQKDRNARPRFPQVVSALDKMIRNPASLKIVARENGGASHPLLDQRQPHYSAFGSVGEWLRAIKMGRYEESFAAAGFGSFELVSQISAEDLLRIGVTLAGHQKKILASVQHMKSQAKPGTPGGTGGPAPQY
Excerpt: as §3

T1 sequence (P08069 31-1367): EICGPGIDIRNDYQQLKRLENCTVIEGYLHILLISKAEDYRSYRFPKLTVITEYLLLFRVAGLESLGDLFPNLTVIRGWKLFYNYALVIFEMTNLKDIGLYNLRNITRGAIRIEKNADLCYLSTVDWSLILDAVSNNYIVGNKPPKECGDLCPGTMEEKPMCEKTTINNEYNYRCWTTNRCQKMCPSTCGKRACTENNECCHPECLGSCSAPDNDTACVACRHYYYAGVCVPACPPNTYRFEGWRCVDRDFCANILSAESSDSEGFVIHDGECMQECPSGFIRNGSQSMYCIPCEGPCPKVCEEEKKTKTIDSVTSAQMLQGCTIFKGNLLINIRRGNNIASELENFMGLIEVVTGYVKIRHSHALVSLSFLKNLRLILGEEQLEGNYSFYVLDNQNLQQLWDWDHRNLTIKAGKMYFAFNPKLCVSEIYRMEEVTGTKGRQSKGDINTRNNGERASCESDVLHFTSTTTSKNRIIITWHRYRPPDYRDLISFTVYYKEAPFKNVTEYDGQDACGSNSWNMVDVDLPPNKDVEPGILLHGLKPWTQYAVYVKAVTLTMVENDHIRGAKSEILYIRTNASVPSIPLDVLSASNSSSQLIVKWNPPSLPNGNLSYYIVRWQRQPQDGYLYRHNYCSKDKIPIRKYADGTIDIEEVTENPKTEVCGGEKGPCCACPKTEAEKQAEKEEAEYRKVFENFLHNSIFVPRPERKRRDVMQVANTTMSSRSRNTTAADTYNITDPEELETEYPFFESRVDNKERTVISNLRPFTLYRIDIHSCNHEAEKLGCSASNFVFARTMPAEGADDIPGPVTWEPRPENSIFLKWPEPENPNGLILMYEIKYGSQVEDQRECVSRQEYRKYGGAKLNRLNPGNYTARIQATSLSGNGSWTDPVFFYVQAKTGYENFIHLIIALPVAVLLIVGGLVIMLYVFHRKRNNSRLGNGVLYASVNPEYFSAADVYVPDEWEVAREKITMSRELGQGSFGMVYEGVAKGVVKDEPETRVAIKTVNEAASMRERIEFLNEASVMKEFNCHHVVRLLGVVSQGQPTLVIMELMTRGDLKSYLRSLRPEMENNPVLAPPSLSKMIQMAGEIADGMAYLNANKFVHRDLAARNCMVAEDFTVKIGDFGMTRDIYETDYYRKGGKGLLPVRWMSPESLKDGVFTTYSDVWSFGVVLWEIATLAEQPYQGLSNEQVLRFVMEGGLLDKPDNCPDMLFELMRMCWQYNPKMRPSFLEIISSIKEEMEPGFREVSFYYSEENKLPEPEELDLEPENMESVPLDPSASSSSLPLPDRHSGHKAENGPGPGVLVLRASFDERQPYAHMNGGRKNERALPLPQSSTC
Chain of InsR (P06213 28-1382, species assumed): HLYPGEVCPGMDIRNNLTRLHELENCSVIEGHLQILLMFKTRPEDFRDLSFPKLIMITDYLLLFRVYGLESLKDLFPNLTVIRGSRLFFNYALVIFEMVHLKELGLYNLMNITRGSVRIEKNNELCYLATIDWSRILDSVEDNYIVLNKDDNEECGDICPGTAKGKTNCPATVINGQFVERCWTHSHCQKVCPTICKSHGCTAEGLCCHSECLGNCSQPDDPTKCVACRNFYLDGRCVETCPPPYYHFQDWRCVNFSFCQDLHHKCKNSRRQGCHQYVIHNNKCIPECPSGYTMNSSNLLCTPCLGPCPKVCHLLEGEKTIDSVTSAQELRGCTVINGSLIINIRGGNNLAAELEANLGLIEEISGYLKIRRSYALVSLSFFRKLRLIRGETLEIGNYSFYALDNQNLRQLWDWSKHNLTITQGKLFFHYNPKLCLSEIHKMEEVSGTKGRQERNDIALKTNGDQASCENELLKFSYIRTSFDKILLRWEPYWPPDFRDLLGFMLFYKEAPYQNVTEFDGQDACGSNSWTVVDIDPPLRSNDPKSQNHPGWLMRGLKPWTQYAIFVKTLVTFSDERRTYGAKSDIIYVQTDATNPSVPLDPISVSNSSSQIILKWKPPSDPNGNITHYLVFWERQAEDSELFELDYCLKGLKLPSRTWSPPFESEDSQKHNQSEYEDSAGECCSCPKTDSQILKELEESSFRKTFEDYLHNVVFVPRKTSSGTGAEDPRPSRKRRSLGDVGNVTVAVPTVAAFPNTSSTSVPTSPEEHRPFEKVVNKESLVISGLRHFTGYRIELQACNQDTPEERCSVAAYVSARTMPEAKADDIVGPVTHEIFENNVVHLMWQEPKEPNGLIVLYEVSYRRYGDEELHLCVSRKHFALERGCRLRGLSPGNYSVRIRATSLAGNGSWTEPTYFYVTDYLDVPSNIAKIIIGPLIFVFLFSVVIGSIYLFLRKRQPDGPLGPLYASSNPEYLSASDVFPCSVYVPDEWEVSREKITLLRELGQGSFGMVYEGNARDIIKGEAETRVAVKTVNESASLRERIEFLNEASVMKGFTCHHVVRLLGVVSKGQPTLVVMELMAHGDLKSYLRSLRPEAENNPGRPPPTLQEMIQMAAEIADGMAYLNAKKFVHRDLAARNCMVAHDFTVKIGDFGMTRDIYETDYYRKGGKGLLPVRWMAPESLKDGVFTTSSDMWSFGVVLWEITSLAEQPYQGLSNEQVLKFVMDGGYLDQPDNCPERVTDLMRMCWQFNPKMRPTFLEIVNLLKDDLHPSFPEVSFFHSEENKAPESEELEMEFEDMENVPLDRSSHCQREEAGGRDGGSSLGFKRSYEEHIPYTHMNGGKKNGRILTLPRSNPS
Chain of c-src (P12931 whole entry, species assumed): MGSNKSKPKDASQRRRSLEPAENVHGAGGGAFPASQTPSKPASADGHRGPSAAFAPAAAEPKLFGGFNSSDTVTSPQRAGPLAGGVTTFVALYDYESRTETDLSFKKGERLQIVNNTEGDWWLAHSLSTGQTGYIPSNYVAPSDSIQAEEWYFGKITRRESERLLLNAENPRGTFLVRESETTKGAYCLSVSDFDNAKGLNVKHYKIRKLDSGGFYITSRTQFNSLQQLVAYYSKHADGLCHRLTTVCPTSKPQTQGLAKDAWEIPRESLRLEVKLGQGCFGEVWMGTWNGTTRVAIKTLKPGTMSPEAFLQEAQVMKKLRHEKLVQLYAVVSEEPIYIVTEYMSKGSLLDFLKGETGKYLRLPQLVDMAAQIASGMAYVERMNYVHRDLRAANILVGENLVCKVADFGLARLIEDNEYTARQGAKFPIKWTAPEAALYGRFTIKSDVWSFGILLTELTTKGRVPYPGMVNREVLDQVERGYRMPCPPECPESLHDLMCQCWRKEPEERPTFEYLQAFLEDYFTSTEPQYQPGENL
Chain of C-Abl (P00519 whole entry): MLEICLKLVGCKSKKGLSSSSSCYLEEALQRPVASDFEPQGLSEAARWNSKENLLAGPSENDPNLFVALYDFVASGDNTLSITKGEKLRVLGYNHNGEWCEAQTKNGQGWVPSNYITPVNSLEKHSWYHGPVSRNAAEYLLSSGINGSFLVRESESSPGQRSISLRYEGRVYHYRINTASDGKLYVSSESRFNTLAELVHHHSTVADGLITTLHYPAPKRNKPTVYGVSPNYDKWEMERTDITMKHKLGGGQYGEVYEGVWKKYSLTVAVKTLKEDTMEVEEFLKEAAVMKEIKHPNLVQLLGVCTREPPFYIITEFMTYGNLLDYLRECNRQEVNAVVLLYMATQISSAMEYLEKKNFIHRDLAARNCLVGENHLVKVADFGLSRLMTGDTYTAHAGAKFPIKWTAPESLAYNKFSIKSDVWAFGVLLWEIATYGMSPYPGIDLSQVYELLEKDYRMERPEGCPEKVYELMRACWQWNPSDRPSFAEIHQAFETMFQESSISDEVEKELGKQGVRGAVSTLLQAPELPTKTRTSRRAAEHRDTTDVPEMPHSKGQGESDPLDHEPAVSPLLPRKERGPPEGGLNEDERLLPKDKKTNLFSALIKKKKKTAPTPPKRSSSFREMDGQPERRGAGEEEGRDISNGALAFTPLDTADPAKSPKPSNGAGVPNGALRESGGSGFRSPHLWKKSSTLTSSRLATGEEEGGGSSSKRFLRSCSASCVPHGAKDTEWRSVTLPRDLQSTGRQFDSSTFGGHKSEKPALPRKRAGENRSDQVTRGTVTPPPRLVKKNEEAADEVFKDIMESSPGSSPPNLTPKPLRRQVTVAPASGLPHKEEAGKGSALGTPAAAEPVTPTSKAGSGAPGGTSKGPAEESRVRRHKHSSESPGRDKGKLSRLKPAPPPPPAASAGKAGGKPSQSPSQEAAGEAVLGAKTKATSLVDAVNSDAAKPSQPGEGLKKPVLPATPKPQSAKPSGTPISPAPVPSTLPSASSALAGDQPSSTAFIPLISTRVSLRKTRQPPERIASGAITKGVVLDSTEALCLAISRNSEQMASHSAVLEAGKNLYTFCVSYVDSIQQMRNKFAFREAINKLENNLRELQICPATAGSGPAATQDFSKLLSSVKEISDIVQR

For `Nc1ncnc2c1c(-c1cccc(OC[C@H]3CCCCO3)c1)cn2[C@H]1C[C@@H](CN2CCC2)C1` (single isomer, unassigned) [Example 2], the “Relative peak area after incubation, Parent” value (“Relative peak area … Parent” below) [1] was 90.3%, the “Relative peak area after incubation, Phenol metabolite X” value [1] was “not detected” and the IC50 (IGF-1R) was 51 to 99 nM. For the same compound, the “formation of the phenolic metabolite X” value [2] was “no evidence of formation”, the “metabolic stability relative to ex.102 of WO02/092559” value [2] was “Greater metabolic stability” and the “Relative peak area … Parent” value [2] was 69.3%. The “Relative peak area after incubation, Phenol metabolite X” value [2] was “not detected”.
For `Nc1ncnc2c1c(-c1cccc(OC[C@@H]3CCCCO3)c1)cn2[C@H]1C[C@@H](CN2CCC2)C1` (single isomer, unassigned) [Example 3], the “Relative peak area … Parent” value [1] was 81.7%, the “Relative peak area after incubation, Phenol metabolite X” value [1] was “not detected” and the IC50 (IGF-1R) was 105 to 141 nM. For the same compound, the “formation of the phenolic metabolite X” value [2] was “no evidence of formation”, the “metabolic stability relative to ex.102 of WO02/092559” value [2] was “Greater metabolic stability” and the “Relative peak area … Parent” value [2] was 75.8%. For the same compound, the “Relative peak area after incubation, Phenol metabolite X” value [2] was “not detected”.
In the case of `Nc1ncnc2c1c(-c1cccc(OCC34CCC(CC3)O4)c1)cn2[C@@H]1CCN(C2CS(=O)(=O)C2)C1` [Example 225, 7-[(R)-1-(1,1-dioxo-thietan-3-yl)-pyrrolidin-3-yl]-5-[3-(7-oxa-bicyclo[2.2.1]hept-1-ylmethoxy)-phenyl]-7H-pyrrolo[2,3-d]pyrimidin-4-ylamine], the IC50 (IGF-1R) is reported as 319 nM.
In the case of `Nc1ncnc2c1c(-c1cccc(OCC34CCC(CC3)O4)c1)cn2C1CC(CN2CC3CC2CS3)C1` [Example 227, 5-[3-(7-Oxa-bicyclo[2.2.1]hept-1-ylmethoxy)-phenyl]-7-{(trans-3-[(1S,4S)-1-(2-thia-5-aza-bicyclo[2.2.1]hept-5-yl)methyl]-cyclobutyl}-7H-pyrrolo[2,3-d]pyrimidin-4-ylamine], the IC50 (IGF-1R) is reported as 74 nM.
In the case of `Nc1ncnc2c1c(-c1cccc(OC[C@@H]3CCCO3)c1)cn2[C@H]1C[C@@H](N2CC[S+]([O-])CC2)C1` [Example 234, 7-[cis-3-(1-oxo-thiomorpholin-4-yl)-cyclobutyl]-5-{3-[(S)-1-(tetrahydro-furan-2-yl)methoxy]-phenyl}-7H-pyrrolo[2,3-d]pyrimidin-4-ylamine], the IC50 (IGF-1R) is reported as 309 nM.
Compound `CN(C)CC1(O)CC(n2cc(-c3cccc(OCC45CCC(CC4)O5)c3)c3c(N)ncnc32)C1` (stereo not drawn) [Example 235, 3-{4-Amino-5-[3-(7-oxa-bicyclo[2.2.1]hept-1-ylmethoxy)-phenyl]-pyrrolo[2,3-d]pyrimidin-7-yl}-1-dimethylaminomethyl-cyclobutanol] has an IC50 (IGF-1R) of 49 nM.
In the case of `Nc1ncnc2c1c(-c1cccc(OC[C@@H]3CCCO3)c1)cn2C1CC2(CNC(=O)O2)C1` (stereo partly drawn) [Example 238, 2-(4-Amino-5-{3-[(S)-1-(tetrahydro-furan-2-yl)methoxy]-phenyl}-pyrrolo[2,3-d]pyrimidin-7-yl)-5-oxa-7-aza-spiro[3.4]octan-6-one], the IC50 (IGF-1R) is reported as 366 nM.
Compound `Nc1ncnc2c1c(-c1cccc(O)c1)cn2[C@H]1C[C@@H](CN2CCC2)C1` [Phenol metabolite X, cis-3-[4-amino-7-(3-azetidin-1-ylmethyl-cyclobutyl)-7H-pyrrolo[2,3-d]pyrimidin-5-yl]-phenol] has an IC50 (InsR) of 3800 nM, an IC50 (RET) of 8 nM and an IC50 (C-Abl) of 47 nM. The IC50 (c-src) was 4 nM and the IC50 (EphB4) was 9 nM.
